Values joined by “and” are separate entries in the source; they are usually repeats but may differ in a detail not shown here. Identical values can stand only once. “Also recorded” adds a separate entry of the source. Like-named read-outs stand apart in the source and are kept apart here.
How the values were obtained:
Format in all cases: cell-based
[1] = Cytotoxicity of alkyl lipids, neutral red dye uptake (Table 1); conditions: human, hep-g2 cells
In short: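 HepG2 cells carrying tandem HBV genomes, with a G418-resistance plasmid, were given four serial compound concentrations in triplicate in RPMI-1640 for nine days at 37° C, with periodic medium replacement. Viability was measured by 0.01% neutral red uptake (A510) and expressed as percent of untreated control wells ±SD.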

Hepatitis B virus [2] = test: Effect of alkyl lipid on HBV induction of antigen markers, DNA and RNA in persistently infected human HEP-G2 cell cultures (Table 8); conditions: for activity at 10 µM: Hepatitis B virus, HepG2, 216 h, nine days, untreated controls 100
Experimental: Further analyses were carried out with compound CP-51. Again, the cells were treated for nine days at 37° C. The overlay medium was harvested to measure levels of HBsAg, HBeAg, HBcAg, virion DNA, RI DNA and RNA levels. HBsAg and HBeAg were assayed by EIA (Abbott Laboratories). HBcAg was assayed by a solid phase EIA. HBV RNA was analyzed by Northern blot hybridization using a ^32 P-labelled 3.2 Kb genomic probe. Intracellular HBV RNA and RI HBV DNA was quantitated using a AMBIS beta scanner.

Hepatitis B virus [3] = test: Effect of alkyl lipids on HBV replication in HBV persistently infected human HEP G2 cells (Table 6); conditions: for Intracellular HBV DNA, Mono (episomal 3.2-3.8 Kb HBV genomes) / Intracellular HBV DNA, RI (replication intermediates): nine days
In short: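 Persistently HBV-infected HepG2 cells exposed to compound for nine days at 37 °C, intracellular HBV DNA analysed 24 h after day nine. Episomal 3.2-3.8 Kb genomes and replication intermediates normalized to integrated HBV DNA; virion DNA detection cut-off 0.1 pg DNA/ml culture medium.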

Hepatitis B virus [4] = test: Effect on synthesis of antigen markers in persistently infected human HEP G2 cell cultures (Table 7)
In short: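 Persistently infected HepG2 cells treated with compound for nine days at 37° C. Culture medium then harvested: HBsAg and HBeAg quantified by EIA, virion DNA by hybridisation-based DNA measurement. Sensitivity cut-off 0.1 pg DNA/ml medium.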

Hepatitis B virus [5] = test: Anti-hepatitis B virus activity in HEP-G2 cells persistently infected with HBV (Table 2); conditions: for activity at 10 µM: Hepatitis B virus, HepG2, 216 h, 9 days treatment
In short: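 HBV-persistently infected HepG2 cells were dosed daily with 10 μM compound in 20% FBS medium for 9 days. Medium HBsAg and HBeAg were measured by EIA and virion DNA by slot-blot hybridisation, each relative to untreated controls. EC90 (90% drop in HBV DNA replication intermediates) came from linear regression.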

Hepatitis B virus [6] = test: CP-51 against HBV-induced antigen syntheses in HEP-G2 cells persistently infected with HBV (Table 3); conditions: for activity at 10 µM / inhibition at 10 µM: Hepatitis B virus; for activity at 10 µM: HepG2, 216 h, 9 days treatment; for inhibition at 10 µM: HepG2
Experimental: (§1) HEP-G2 cells persistently infected with HBV were treated daily with fresh D-MEM containing 20% FBS and 10 μM compound. After 9 days incubation and treatment, the overlay medium was harvested to assay the quantity of Hepatitis B virus s antigen (HBsAg) and HBeAg by EIA (Abbott Laboratories). The overlay medium was diluted to levels of antigen in the linear range of the assay. Standard curves using dilutions of positive HBsAg and HBeAg controls were included in each assay. Virion DNA was assayed using the method set forth in Korba and Gerin, Antiviral Res., 19, 5,5-70 (1992), incorporated by reference herein. HBV DNA was extracted from the overlay medium containing virus particles and analyzed by a slot-blot hybridization technique using ^32 P-labelled 3.2 Kb Eco R1 HBV DNA fragment by comparisons to HBV standards present on nitrocellulose filters using an AMBIS beta scanner. EC90 values (90% effective concentration, i.e., drug concentration which induces a 90% decrease in the levels of HBV DNA replication intermediates in treated versus control cells) were calculated by linear regression analysis. The relative levels of HBsAg, HBeAg and virion DNA were calulated as a percentage of the average levels obtained from the untreated controls.
In contrast, CP-51 inhibited HBeAg and HBcAg syntheses by 76 and 68%, respectively.

Hepatitis B virus [7] = test: Effects of CP-51 on HBV-induced DNA and RNA synthesis (Table 4); conditions: for mrna remaining at 10 µM / activity at 10 µM / inhibition at 10 µM: Hepatitis B virus; for mrna remaining at 10 µM / activity at 10 µM: 9 days treatment
Experimental: as §1
Experiments were performed to determine the effects of CP-51 on HBV induced DNA and RNA syntheses. HEP-G2 cells persistently infected with HBV were treated daily with fresh D-MEM containing 20% FBS and 10 μM compound. After 9 days incubation and treatment the cells and overlay medium were harvested separately to assay the quantity of nucleic acids. Details of the methodology of the assays are given in Section B above. Extracellular virion DNA in untreated cells ranged from 50 to 150 pg/ml in the overlay medium. Intracellular HBV DNA replication intermediates (RI) in untreated cells ranged from 50 to 100 pg/μg cell DNA. Hybridization analysis results in about 1 pg intracellular HBV DNA/μg cellular DNA to 2-3 genomic copies per cell and 1.0 pg of extracellular HBV DNA/ml overlay medium to […] viral particles/ml. HBV RNA was analyzed by Northern blot hybridization analysis using a ^32 P-labeled 3.2 Kb gel-purified cloned genomic probe. Quantitive analysis of intracellular HBV DNA anc 14BV RNA was performed using an AMBIS beta scanner.

## CCCCCCCCCCCCCCCCCC(=O)NCC(COP(=O)([O-])OCC[N+](C)(C)C)OCC (racemic) [CP-51, rac-3-octadecanamido-2-ethyoxy-1-propylphosphocholine]
[1]
  cytotoxicity at 216 h, 30 µM: 4%
  cytotoxicity at 216 h, 100 µM: 29%
  viability at 216 h, 3 µM: 101 ± 1%
  viability at 216 h, 10 µM: 100 ± 4%
  viability at 216 h, 30 µM: 96 ± 2%
  viability at 216 h, 100 µM: 71 ± 1%
Hepatitis B virus [2]; read-out: Relative Level of HBcAg
  activity at 10 µM: 32%
Hepatitis B virus [2]; read-out: Relative Level of HBeAg
  activity at 10 µM: 24%
Hepatitis B virus [2]; read-out: Relative Level of HBsAg
  activity at 10 µM: 88%
Hepatitis B virus [2]; read-out: Relative Level of Intracellular HBV-DNA
  activity at 10 µM: 12%
Hepatitis B virus [2]; read-out: Relative Level of RI DNA
  activity at 10 µM: 42%
Hepatitis B virus [2]; read-out: Relative Level of Total RNA
  activity at 10 µM: 84%
Hepatitis B virus [2]; read-out: Relative Level of Virion DNA
  activity at 10 µM: 2%
Hepatitis B virus [2]; in words
  inhibition of Hepatitis B core antigen (HBcAg) levels: significantly inhibited
  level or size of HBV induced RNA transcripts of HBsAg: did not significantly alter
Hepatitis B virus [3]; 0.1 μM
  Intracellular HBV DNA, Mono (episomal 3.2-3.8 Kb HBV genomes): 2.7 pg/μg Cell DNA and 2.4 pg/μg Cell DNA and 2.3 pg/μg Cell DNA and 2.5 pg/μg Cell DNA and 2.9 pg/μg Cell DNA and 2.2 pg/μg Cell DNA and 2.6 pg/μg Cell DNA and 2.1 pg/μg Cell DNA
  Intracellular HBV DNA, RI (replication intermediates): 54 pg/μg Cell DNA and 62 pg/μg Cell DNA and 51 pg/μg Cell DNA
Hepatitis B virus [3]; 1 μM, Day 9
  HBV Virion DNA: 9 pg/ml Culture Medium and 8 pg/ml Culture Medium and 12 pg/ml Culture Medium and 10 pg/ml Culture Medium and 13 pg/ml Culture Medium and 11 pg/ml Culture Medium and 14 pg/ml Culture Medium and 16 pg/ml Culture Medium
Hepatitis B virus [3]; 1 μM
  Intracellular HBV DNA, Mono (episomal 3.2-3.8 Kb HBV genomes): 2.2 pg/μg Cell DNA and 2.3 pg/μg Cell DNA and 2.4 pg/μg Cell DNA and 2.6 pg/μg Cell DNA and 2.0 pg/μg Cell DNA and 2.1 pg/μg Cell DNA
  Intracellular HBV DNA, RI (replication intermediates): 12 pg/μg Cell DNA and 16 pg/μg Cell DNA and 17 pg/μg Cell DNA and 14 pg/μg Cell DNA and 13 pg/μg Cell DNA and 23 pg/μg Cell DNA and 21 pg/μg Cell DNA and 18 pg/μg Cell DNA
Hepatitis B virus [3]; 10 μM, Day 0
  HBV Virion DNA: 59 pg/ml Culture Medium and 58 pg/ml Culture Medium and 60 pg/ml Culture Medium and 78 pg/ml Culture Medium and 51 pg/ml Culture Medium and 56 pg/ml Culture Medium and 64 pg/ml Culture Medium
Hepatitis B virus [3]; 10 μM, Day 3
  HBV Virion DNA: 55 pg/ml Culture Medium and 49 pg/ml Culture Medium and 44 pg/ml Culture Medium and 48 pg/ml Culture Medium and 33 pg/ml Culture Medium and 30 pg/ml Culture Medium and 36 pg/ml Culture Medium and 40 pg/ml Culture Medium
Hepatitis B virus [3]; 10 μM, Day 6
  HBV Virion DNA: 20 pg/ml Culture Medium and 13 pg/ml Culture Medium and 10 pg/ml Culture Medium and 18 pg/ml Culture Medium and 12 pg/ml Culture Medium and 11 pg/ml Culture Medium and 14 pg/ml Culture Medium
Hepatitis B virus [3]; 10 μM
  Intracellular HBV DNA, Mono (episomal 3.2-3.8 Kb HBV genomes): 1.7 pg/μg Cell DNA and 1.9 pg/μg Cell DNA and 1.8 pg/μg Cell DNA and 2.0 pg/μg Cell DNA and 1.3 pg/μg Cell DNA and 1.1 pg/μg Cell DNA and 1.2 pg/μg Cell DNA and 1.0 pg/μg Cell DNA
Hepatitis B virus [3]; in words, versus ddC
  inhibition of HBV virion DNA and intracellular HBV RI DNA levels: markedly inhibited; also recorded: substantially inhibited
Hepatitis B virus [4]; 10 μM, nine days, 12960 min
  Relative Level of HBeAg: 20 % of Untreated Control
  Relative Level of HBsAg: 78 % of Untreated Control and 114 % of Untreated Control
Hepatitis B virus [4]; Hepatitis B virus, HepG2, 216 h, 10 μM, nine days, read-out: Relative Level of HBeAg
  activity at 10 µM: 23%
Hepatitis B virus [4]; in words
  effect on HBsAg levels released into the culture medium: None of the compounds tested
  reduction in HBeAg and virion DNA levels: caused a reduction; also recorded: most active compounds in suppressing HBeAg and virion DNA levels
Hepatitis B virus [5]; 10 μM, in words
  activity against HBV-induced virion DNA and HBeAg syntheses: potent inhibitory activity
Hepatitis B virus [5]; 10 μM, read-out: Relative Level of HBeAg
  activity at 10 µM: 28%
Hepatitis B virus [5]; 10 μM, read-out: Relative Level of HBsAg
  activity at 10 µM: 99%
Hepatitis B virus [5]; 10 μM, read-out: Relative Level of Virion DNA
  activity at 10 µM: 2%
Hepatitis B virus [5]; in words
  anti-HBV activity: most potent anti-HBV compound; also recorded: most potent anti-HBV activity
Hepatitis B virus [6]; 10 μM, in words
  inhibitory activity against HBsAg synthesis: no inhibitory activity
Hepatitis B virus [6]; 10 μM, read-out: Relative Levels of HBcAg
  activity at 10 µM: 32%
Hepatitis B virus [6]; 10 μM, read-out: Relative Levels of HBeAg
  activity at 10 µM: 24%
Hepatitis B virus [6]; 10 μM, read-out: Relative Levels of HBsAg
  activity at 10 µM: 88%
Hepatitis B virus [6]; 10 μM, read-out: inhibition of HBcAg synthesis
  inhibition at 10 µM: 68%
Hepatitis B virus [6]; 10 μM, read-out: inhibition of HBeAg synthesis
  inhibition at 10 µM: 76%
Hepatitis B virus [6]; in words
  inhibitory activity against HBeAg and HBcAg (core and e antigen) syntheses: selective inhibitory activity; also recorded: inhibit the production of the HBV antigens core antigen and e antigen
Hepatitis B virus [7]; 10 μM, in words
  effect on HBV-induced RNA syntheses: no significant effects
Hepatitis B virus [7]; HepG2, 216 h, 10 μM, read-out: Relative Level of 2.1 Kb RNA
  mrna remaining at 10 µM: 112%
Hepatitis B virus [7]; HepG2, 216 h, 10 μM, read-out: Relative Level of 3.2 Kb DNA
  activity at 10 µM: 42%
Hepatitis B virus [7]; HepG2, 216 h, 10 μM, read-out: Relative Level of 3.6 Kb RNA
  mrna remaining at 10 µM: 84%
Hepatitis B virus [7]; HepG2, 216 h, 10 μM, read-out: Relative Level of Total RNA
  mrna remaining at 10 µM: 112%
Hepatitis B virus [7]; HepG2, 216 h, 10 μM, read-out: Relative Level of Virion DNA
  activity at 10 µM: 2%
Hepatitis B virus [7]; HepG2, 216 h, 10 μM, replication intermediates, read-out: Relative Level of HBV RI
  activity at 10 µM: 12%
Hepatitis B virus [7]; HepG2, 216 h, 10 μM, read-out: inhibition of 3.2 Kb DNA synthesis
  inhibition at 10 µM: 58%
Hepatitis B virus [7]; 10 μM, read-out: inhibition of replication intermediates (RI) DNA synthesis
  inhibition at 10 µM: 88%
Hepatitis B virus [7]; 10 μM, read-out: inhibition of virion DNA synthesis
  inhibition at 10 µM: 98%
Hepatitis B virus [7]; in words
  selectivity for HBV-induced antigens and nucleic acids: selective for inhibiting HBV-induced HBcAg, HBeAg, virion DNA and HBV RI syntheses but not HBsAg or RNA syntheses

From US6030960A, “Method of treating hepatitis virus infections” (priority 1998, dated 2000)
